Read-outs that look alike come from different tables or passages of the source.
Tested on: C. parvum strain UGA1
Experiment: C. parvum growth inhibition assay (Nluc luminescence in HCT-8 cells)
Type: cell-based, Cryptosporidium parvum
Conditions: Cryptosporidium parvum; for EC50: HCT-8, 48 h, C. parvum growth inhibition in HCT-8 cells, 48 hours, 6 concentrations 10-0.04 μM; for inhibition at 1 µM / inhibition at 10 µM: HCT-8; for inhibition at 1 µM: read-out: % inh @ 1 uM C. parvum; for inhibition at 10 µM: read-out: % inh @ 10 uM C. parvum
Description: C. parvum GROWTH INHIBITION ASSAYS
C. parvum growth inhibition was performed as described in Hulverson M A, Vinayak S, Choi R, Schaefer D A, Castellanos-Gonzalez A, Vidadala R S R, Brooks C F, Herbert G T, Betzer D P, Whitman G R, Sparks H N, Arnold S L M, Rivas K L, Barrett L K, White A C Jr, Maly D J, Riggs M W, Striepen B, Van Voorhis W C, Ojo K K. Bumped-Kinase Inhibitors for Cryptosporidiosis Therapy. J Infect Dis. 2017 Apr. 15; 215(8):1275-1284.
C. parvum strain UGA1 […] (ATCC, Manassas, VA) were prepared as described below. HCT-8 cells were inoculated onto 96-well plates were grown for 48 hours to 90%-100% confluence. C. parvum oocysts were then incubated for 10 minutes in 10% bleach at room temperature and washed with Dulbecco's phosphate-buffered saline. One thousand oocysts per well were applied to plates with Roswell Park Memorial Institute 1640 (RPMI) medium supplemented with 10% horse serum and 1% penicillin/streptomycin. Compounds of Formula (I), Formula (II), and Formula (III) were added to the plates at different concentrations and the plates were incubated for 48 hours. Following the incubation, the monolayers were lysed for 1 hour before a luciferase reagent was added, and relative luminescence units were determined.
For certain compounds of Formula I, Formula II, and Formula III, EC50 values were calculated using curves calculated from Prism after analysis of C. parvum growth inhibition at 6 different concentrations: 10, 3.33, 1.11, 0.37, 0.12, and 0.04 μM. […] For certain compounds of Formula I, Formula II, and Formula III, single point inhibition values of 0-33% (activity level D), between 33% and 66% (activity level E), and between 67% and 100% (activity level F) are also shown in Table 1 below.

[1] = single point inhibition at 1 uM
[2] = single point inhibition at 10 uM
[3] = single point inhibition @ 10 uM

Row | Structure (SMILES) | EC50 [µM] | inhibition at 1 µM [1] [%] | inhibition at 10 µM [2] [%] | inhibition at 1 µM (single point inhibition @ 1 uM) [%] | inhibition at 10 µM [3] [%]
1 | CN(CC(F)(F)F)c1cc(-c2cc3cnc(NC4CCOCC4)cc3[nH]2)ncn1 [Example 394, 2-(6-(methyl(2,2,2-trifluoroethyl)amino)pyrimidin-4-yl)-N-(tetrahydro-2H-pyran-4-yl)-1H-pyrrolo[3,2-c]pyridin-6-amine] | > 1 |  |  |  | 
2 | Cn1ccc(-c2cc3cnc(NC(=O)C4CC4)cc3n2C)n1 [Example 345, N-(1-methyl-2-(1-methyl-1H-pyrazol-3-yl)-1H-pyrrolo[3,2-c]pyridin-6-yl)cycloproapnecarboxamide] | > 1 |  |  |  | 
3 | Cn1cc(C(=O)Nc2cc3[nH]c(-c4cnc(C(F)(F)F)cn4)cc3cn2)cn1 [Example 304, 1-methyl-N-(2-(5-(trifluoromethyl)pyrazin-2-yl)-1H-pyrrolo[3,2-c]pyridin-6-yl)-1H-pyrazole-4-carboxamide] |  | 33 to 66 | 0 to 33 |  | 
4 | Cc1nn(C)cc1C(=O)Nc1cc2c(cn1)cc(-c1ccnc(NCC(F)(F)F)n1)n2C [Example 240, 1,3-dimethyl-N-(1-methyl-2-(2-(2,2,2-trifluoroethylamino)pyrimidin-4-yl)-1H-pyrrolo[3,2-c]pyridin-6-yl)-1H-pyrazole-4-carboxamide] |  | 0 to 33 | 0 to 33 |  | 
5 | Cn1c(-c2cnco2)cc2cnc(NC(=O)C3CC3)cc21 [Example 74, N-(1-methyl-2-(oxazol-5-yl)-1H-pyrrolo[3,2-c]pyridin-6-y)cyclopropanecarboxamide] | > 1 |  |  |  | 
6 | CC(C)n1c(-c2ccnc(NCC(F)(F)F)n2)cc2cnc(NC(=O)c3cnn(C)c3)cc21 [Example 338, N-(1-isopropyl-2-(2-(2,2,2-trifluoroethylamino)pyrimidin-4-yl)-1H-pyrrolo[3,2-c]pyridin-6-yl)-1-methyl-1H-pyrazole-4-carboxamide] |  | 0 to 33 | 0 to 33 |  | 
7 | Cn1cc(C(=O)Nc2cc3[nH]c(-c4ccnc(OC5CC(O)C5)n4)cc3cn2)cn1 (stereo not drawn) [Example 324, N-(2-(2-(3-hydroxycyclobutoxy)pyrimidin-4-yl)-1H-pyrrolo[3,2-c]pyridin-6-yl)-1-methyl-1H-pyrazole-4-carboxamide] |  | 0 to 33 | 0 to 33 |  | 
8 | CCOc1nccc(-c2cc3cnc(NC(=O)CC4COC4)cc3[nH]2)n1 [Example 139, N-(2-(2-ethoxypyrimidin-4-yl)-1H-pyrrolo[3,2-c]pyridin-6-yl)-2-(oxetan-3-yl)acetamide] |  |  |  | 0 to 33 | 67 to 100
9 | Cn1cc(C(=O)Nc2cc3[nH]c(-c4ccnc(OCCC(F)(F)F)n4)cc3cn2)cn1 [Example 213, 1-methyl-N-(2-(2-(3,3,3-trifluoropropoxy)pyrimidin-4-yl)-1H-pyrrolo[3,2-c]pyridin-6-yl)-1H-pyrazole-4-carboxamide] |  | 0 to 33 | 67 to 100 |  | 
10 | Cc1ccccc1-c1cc2cnc(NC3CCOCC3)cc2[nH]1 [Example 357, N-(tetrahydro-2H-pyran-4-yl)-2-o-tolyl-1H-pyrrolo[3,2-c]pyridin-6-amine] | > 1 |  |  |  | 
11 | CC(C)n1cc(C(=O)Nc2cc3c(cn2)cc(-c2ccnc(NCC(F)F)n2)n3C)cn1 [Example 169, N-(2-(2-(2,2-difluoroethylamino)pyrimidin-4-yl)-1-methyl-1H-pyrrolo[3,2-c]pyridin-6-yl)-1-isopropyl-1H-pyrazole-4-carboxamide] |  |  |  | 0 to 33 | 67 to 100
12 | Cc1ccnc(-c2cc3cnc(NC4CCOCC4)cc3[nH]2)c1 [Example 350, 2-(4-methylpyridin-2-yl)-N-(tetrahydro-2H-pyran-4-yl)-1H-pyrrolo[3,2-c]pyridin-6-amine] | > 1 |  |  |  | 
13 | COc1cc(Nc2cc3[nH]c(C#N)cc3cn2)cc(C2CCOCC2)c1 [Example 148, 6-(3-methoxy-5-(tetrahydro-2H-pyran-4-yl)phenylamino)-1H-pyrrolo[3,2-c]pyridine-2-carbonitrile] |  |  |  | 0 to 33 | 67 to 100
14 | Cc1cc(-c2cc3cnc(NC(=O)C4CCCOC4)cc3[nH]2)ccn1 (stereo not drawn) [Example 155, N-(2-(2-methylpyridin-4-yl)-1H-pyrrolo[3,2-c]pyridin-6-yl)tetrahydro-2H-pyran-3-carboxamide] |  |  |  | 0 to 33 | 67 to 100
15 | CC(C)n1cc(-c2cc3cnc(NC4CCOCC4)cc3n2C)cn1 [Example 241, 2-(1-isopropyl-1H-pyrazol-4-yl)-1-methyl-N-(tetrahydro-2H-pyran-4-yl)-1H-pyrrolo[3,2-c]pyridin-6-amine] |  | 33 to 66 | 0 to 33 |  | 
16 | COc1nccc(-c2cc3cnc(NC(=O)c4cn(CC5CCOC5)nc4C)cc3[nH]2)n1 (stereo in doubt) [Example 326, (S)-N-(2-(2-methoxypyrimidin-4-yl)-1H-pyrrolo[3,2-c]pyridin-6-yl)-3-methyl-1-((tetrahydrofuran-3-yl)methyl)-1H-pyrazole-4-carboxamide] |  | 0 to 33 | 0 to 33 |  | 
17 | Cc1cc(-c2cc3cnc(NC(=O)c4cnn(C5CCCC5)c4)cc3[nH]2)ccn1 [Example 84, 1-cyclopentyl-N-(2-(2-methylpyridin-4-yl)-1H-pyrrolo[3,2-c]pyridin-6-yl)-1H-pyrazole-4-carboxamide] | > 1 |  |  | 67 to 100 | 0 to 33
18 | CC(C)n1cc(C(=O)Nc2cc3c(cn2)cc(-c2ccnc(NCC4CC4)n2)n3C)cn1 [Example 131, N-(2-(2-(cyclopropylmethylamino)pyrimidin-4-yl)-1-methyl-1H-pyrrolo[3,2-c]pyridin-6-yl)-1-isopropyl-1H-pyrazole-4-carboxmaide] |  |  |  | 0 to 33 | 67 to 100
19 | Cn1c(-c2ccccc2)cc2cnc(NC(=O)C3CCOCC3)cc21 [Example 265, N-(1-methyl-2-phenyl-1H-pyrrolo[3,2-c]pyridin-6-yl)tetrahydro-2H-pyran-4-carboxamide] |  | 0 to 33 | 0 to 33 |  | 
20 | Cc1cc(-c2cc3cnc(NC(=O)C4CCCO4)cc3[nH]2)ccn1 (stereo in doubt) [Example 182, (S)-N-(2-(2-methylpyridin-4-yl)-1H-pyrrolo[3,2-c]pyridin-6-yl)tetrahydrofuran-2-carboxamide] |  |  |  | 0 to 33 | 67 to 100
21 | O=C(Nc1cc2[nH]c(-c3ccc(F)cn3)cc2cn1)C1CC1 [Example 268, N-(2-(5-fluoropyridin-2-yl)-1H-pyrrolo[3,2-c]pyridin-6-yl)cyclopropanecarboxamide] |  | 0 to 33 | 0 to 33 |  | 
22 | Cn1cc(C(=O)Nc2cc3c(cn2)cc(C#N)n3C)cn1 [Example 279, N-(2-cyano-1-methyl-1H-pyrrolo[3,2-c]pyridin-6-yl)-1-methyl-1H-pyrazole-4-carboxamide] |  | 0 to 33 | 0 to 33 |  | 
23 | Cn1cc(C(=O)Nc2cc3[nH]c(-c4cncn4C)cc3cn2)cn1 [Example 90, 1-methyl-N-(2-(1-methyl-1H-imidazol-5-yl)-1H-pyrrolo[3,2-c]pyridin-6-yl)-1H-pyrazole-4-carboxamide] | > 1 |  |  | 33 to 66 | 0 to 33
24 | CO[C@H]1C[C@@H](C(=O)Nc2cc3[nH]c(-c4ccnc(C)c4)cc3cn2)C1 [Example 191, (1s,3s)-3-methoxy-N-(2-(2-methylpyridin-4-yl)-1H-pyrrolo[3,2-c]pyridin-6-yl)cyclobutanecarboxamide] |  |  |  | 0 to 33 | 67 to 100
25 | COc1nccc(-c2cc3cnc(NC(=O)c4cn(CC5CCOC5)nc4C)cc3[nH]2)n1 (stereo in doubt) [Example 246, (R)-N-(2-(2-methoxypyrimidin-4-yl)-1H-pyrrolo[3,2-c]pyridin-6-yl)-3-methyl-1-((tetrahydrofuran-3-yl)methyl)-1H-pyrazole-4-carboxamide] |  | 0 to 33 | 0 to 33 |  | 
26 | FC(F)(F)CNc1nccc(-c2cc3cnc(NC4CCOC4)cc3[nH]2)n1 (stereo in doubt) [Example 374, (S)-N-(tetrahydrofuran-3-yl)-2-(2-(2,2,2-trifluoroethylamino)pyrimidin-4-yl)-1H-pyrrolo[3,2-c]pyridin-6-amine] | 0.5 to 1 |  |  |  | 
27 | FC(F)(F)CNc1cc(-c2cc3cnc(NC4CCOCC4)cc3[nH]2)ncn1 [Example 360, N -(tetrahydro-2H-pyran-4-yl)-2-(6-(2,2,2-trifluoroethylamino)pyrimidin-4-yl)-1H-pyrrolo[3,2-c]pyridin-6-amine] | < 0.5 |  |  |  | 
28 | Cn1cc(C(=O)Nc2cc3[nH]c(-c4cc(C(F)(F)F)ccn4)cc3cn2)cn1 [Example 299, 1-methyl-N-(2-(4-(trifluoromethyl)pyridin-2-yl)-1H-pyrrolo[3,2-c]pyridin-6-yl)-1H-pyrazole-4-carboxamide] |  | 0 to 33 | 0 to 33 |  | 
